The test system of one data set is normal plasma cells. The data set can be described thus: Survival of normal plasma cells and matched normal leucocytes, trypan blue exclusion. The class given is cell-based, human. The conditions noted are these: 24 h exposure. How it is done:
A and B. Effects of chaetocin on survival of MGUS plasma cells and matched patient normal leucocytes from two patients (assessed by trypan blue exclusion assay, 24 h chaetocin exposures). C and D. Effects of chaetocin on survival of normal plasma cells and matched patient normal leucocytes from two patients (assessed by trypan blue exclusion assay, 24 h chaetocin exposures).

The target of another data set is T1, TrxR1 (Rattus norvegicus, UniProt O89049).
T1 sequence (O89049 1-499): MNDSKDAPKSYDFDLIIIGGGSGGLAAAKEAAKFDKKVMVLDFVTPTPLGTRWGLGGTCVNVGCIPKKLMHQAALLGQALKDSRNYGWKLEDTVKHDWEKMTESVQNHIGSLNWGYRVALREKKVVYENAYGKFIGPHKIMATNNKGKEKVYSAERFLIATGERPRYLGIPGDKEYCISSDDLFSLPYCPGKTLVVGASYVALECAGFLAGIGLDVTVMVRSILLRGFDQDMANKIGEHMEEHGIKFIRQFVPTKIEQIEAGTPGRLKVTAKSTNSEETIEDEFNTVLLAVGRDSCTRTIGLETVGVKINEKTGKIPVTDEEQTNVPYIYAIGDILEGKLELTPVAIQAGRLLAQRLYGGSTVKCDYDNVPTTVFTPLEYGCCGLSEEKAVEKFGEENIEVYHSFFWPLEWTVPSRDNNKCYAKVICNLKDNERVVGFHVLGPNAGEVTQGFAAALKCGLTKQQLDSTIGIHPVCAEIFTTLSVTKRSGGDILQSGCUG
The data set can be described thus: Thioredoxin reductase activity assay (DTNB method). It counts as biochemical. On the set-up: rat liver thioredoxin reductase; purchased Sigma (St. Louis, Mo.). The following applies: cell-free; read-out: IC50, TrxR1-initiated turnover of DTNB. As for the experimental part: (§1) HeLa cells were obtained from ATCC.
Final concentrations were 0.0005 U/μL of enzyme and 0.24 mM NADPH in the presence of chaetocin as indicated in a 100 μL reaction. The reaction was started by the addition of DTNB (3 mM) and the change in absorbance at 405 nm was monitored in a plate reader. Activity was calculated as the increase in absorbance between 2 and 5 min after DTNB addition.

Data set [1] deals with freshly collected sorted patient CD138+ myeloma cells. The conditions noted are these: ex vivo, 24 hours, trypan blue exclusion. How it is done: FIG. 3. […] Survival indicated in A-E was assessed using a trypan blue exclusion assay, counting viable cells using a hemocytometer after 24 hour exposure to the indicated drugs and drug concentrations.
Patient bone marrow leukocytes were divided into myeloma (CD138+) and non-myeloma/normal leukocyte (CD138−) fractions employing sorting using magnetic bead technology in kit form (MACS CD138 microbeads, Miltenyi Biotech, Auburn, Calif.). Sorted cells were plated in a 96-well tissue culture plate at a concentration of 5×10^5 cells and dosed with indicated drug concentrations for 24 hours. Survival was assessed using a trypan blue exclusion assay.

Data set [2] can be described thus: Tolerability of IP chaetocin in mice. The class given is in vivo, mouse. The following applies: 0.6 mg/kg and 0.25 mg/kg IP twice weekly for two weeks. How it is done:
Subsequent in vivo work in mice utilized the following formulation: 0.06 mg/mL chaetocin in 20% PEG400 and 79.14% […] NaCl with 0.86% DMSO as a cosolvent. This system retains in vitro activity in cell culture models.

In another data set the target is T2, thioredoxin (Escherichia coli, UniProt P0AA25).
T2 construct: purchased Promega (Madison, Wis.)
The data set can be described thus: Thioredoxin activity assay (insulin precipitation). It counts as biochemical, E. coli. The conditions noted are these: higher chaetocin concentrations; read-out: IC50, Trx activity inhibition. How it is done:
as §1
Thioredoxin Activity Assay: The 100 μL reaction contained 100 mM potassium phosphate (pH 7.0), 2 mM EDTA, 0.13 mM bovine insulin, 3.9 μM E. coli thioredoxin and chaetocin as indicated. The reaction was initiated by addition of 0.33 mM DTT, and turbidity was monitored at 620 nm in a plate reader. The initial linear rate was calculated based on the slope of the line after an increase in absorbance (indicating precipitation of insulin) started to occur.

In a further data set the target is T3, thioredoxin reductase (Rattus norvegicus, UniProt O89049).
T3 construct: rat liver thioredoxin reductase; purchased Sigma (St. Louis, Mo.); host or cells: rat liver
T3 sequence (O89049 1-499): T1 sequence (O89049 1-499)
Kind of data set: Thioredoxin reductase activity assay (gel-based oxidation state of thioredoxin method). It counts as biochemical. As for the experimental part: as §1
Thioredoxin Reductase Activity Assay (gel-based oxidation state of thioredoxin method): Reduction of thioredoxin by thioredoxin reductase was measured by the decrease in electrophoretic mobility caused by covalent modification of thioredoxin (by AMS) when the disulfide is reduced. […] At the indicated time, a 5 μL sample was removed and immediately added to 5 μL of 30 mM AMS in TE buffer (pH 7.5). The AMS was allowed to react (15 minutes at 22° C.) with reduced thioredoxin sulfhydryl groups, then the samples were mixed with non-reducing sample buffer and were electrophoresed on 18% Tris-HCl SDS-PAGE gels. The gels were stained with Coomassie blue and bands were imaged and quantitated using a Syngene InGenius gel documentation system (Frederick, Md.).

For another data set, the system named is U266 myeloma cells. The data set can be described thus: ROS (superoxide) by FACS with hydroethidium in U266 cells. The following applies: 200 nM, p<0.001. It counts as cell-based, human. How it is done: FIG. 7. […] A549 cells were exposed to the indicated concentration of chaetocin for 24 hours, with addition of glutathione or diluent 30 minutes prior to chaetocin addition. Glutathione levels were assessed by spectrophotometric assay as described below. […] Cells were treated with 10 μM chaetocin for 20 minutes prior to assay, and calculated intracellular chaetocin levels were measured by HPLC with adjusted for differences in average cell volume (calculated from measured cell radii ascertained via light microscopy). Shaded area represents 1 standard deviation confidence interval, with central bar reflecting the mean relative intracellular chaetocin level. […] Cells from 4 myeloma patients were exposed to 200 μM hydrogen peroxide for 24 hours prior to assay, with trypan blue exclusion used to assess surviving cells.
Assessment of cellular oxidative stress: Cellular oxidative stress was assessed utilizing 5,6-chloromethyl-2′,7′-dichlorodihydrofluorescein diacetate or hydroethidium (Molecular Probes/Invitrogen, Carlsbad, Calif.) as cell permeable fluorescent probes and FACS analyses.

In general, IC50 refers to the concentration at which inhibition is half-maximal.

T2 sequence (P0AA25 whole entry): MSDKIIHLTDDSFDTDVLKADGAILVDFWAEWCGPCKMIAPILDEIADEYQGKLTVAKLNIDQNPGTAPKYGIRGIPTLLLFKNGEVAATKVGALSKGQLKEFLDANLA

For the compound `CN1C(=O)[C@@]23C[C@]4([C@]56C[C@@]78SS[C@@](CO)(C(=O)N7[C@H]5Nc5ccccc56)N(C)C8=O)c5ccccc5N[C@@H]4N2C(=O)[C@]1(CO)SS3` [chaetocin], the “effect on granulocytes and other leukocytes” value in the data set on normal plasma cells was “largely sparing granulocytes and other leukocytes”. Also, the IC50 at TrxR1 was around 4 µM; on thioredoxin it was around 90 µM; at thioredoxin reductase (initial linear portion of the reaction, read-out: IC50, reduction of thioredoxin by thioredoxin reductase), 4 µM. Also, the “effect on matched CD138- normal bone marrow leukocytes” value in data set [1] is “largely sparing”. Besides, the GI toxicity result in data set [2] is reported as “some GI toxicity was noted”. In addition, the tolerability result in data set [2] was “tolerated”. For the same compound, on thioredoxin reductase (gel-based, AMS modification), the “inhibition of reduction of thioredoxin by thioredoxin reductase” value is listed as “inhibit the ability of TrxR1 to reduce Trx”. Further, the “peak shift (ROS, hydroethidium) relative to stained, untreated cells” value in the data set with U266 myeloma cells was 43.26+3.67.

The values are drawn from patent publication US20090264421A1 (priority 2007, published 2009).
